Reference: US20260224528A1, “PSILOCIN FORMULATIONS” (Eleusis Therapeutics US, Inc., priority 2023, published 2026)

Test: Stability of DS in aqueous solution
Assay type: physicochemical
Settings: pH range of 4 to 9; rapid degradation and discoloration
Description: The goal of this study was to develop an isotonic stable formulation with the psilocin benzoate Drug Substance (DS) concentration ranging from 0.5 to 3.0 mg/mL (mg free base psilocin) as a bulk sterile solution, having a pH in the range of 4 to 9 in a single use glass vial suitable for IV injection. […] This led to the development of a formulation of psilocin benzoate containing antioxidants, buffers, pH adjustment.

## CN(C)CCc1c[nH]c2cccc(O)c12.O=C(O)c1ccccc1 [DS, psilocin benzoate]
  Stability in aqueous solution: short stability in aqueous solution
